According to ChEMBL document CHEMBL5625183, “Discovery of a novel dual-target inhibitor of CDK12 and PARP1 that induces synthetic lethality for treatment of triple-negative breast cancer” (Eur J Med Chem, 2023):

Assays:
MDA-MB-231 = experiment: Antiproliferative activity against human MDA-MB-231 cells assessed as inhibition of cell growth incubated for 24 hrs by MTT assay; assay type: functional, cell-based; conditions: MDA-MB-231, 24 h
MDA-MB-468 = experiment: Antiproliferative activity against human MDA-MB-468 cells assessed as inhibition of cell growth incubated for 24 hrs by MTT assay; assay type: functional, cell-based; conditions: MDA-MB-468, 24 h
MDA-MB-436 = experiment: Antiproliferative activity against human MDA-MB-436 cells assessed as inhibition of cell growth incubated for 24 hrs by MTT assay; assay type: functional, cell-based; conditions: Homo sapiens, MDA-MB-436, 24 h
[1] = target: Cyclin-dependent kinase 12 (Homo sapiens, UniProt Q9NYV4); experiment: Inhibition of CDK12 (unknown origin) at 1 uM in presence of ATP by kinase-glo plus luminescent assay relative to control
Cyclin-dependent kinase 12, sequence (Q9NYV4 whole entry, looked up): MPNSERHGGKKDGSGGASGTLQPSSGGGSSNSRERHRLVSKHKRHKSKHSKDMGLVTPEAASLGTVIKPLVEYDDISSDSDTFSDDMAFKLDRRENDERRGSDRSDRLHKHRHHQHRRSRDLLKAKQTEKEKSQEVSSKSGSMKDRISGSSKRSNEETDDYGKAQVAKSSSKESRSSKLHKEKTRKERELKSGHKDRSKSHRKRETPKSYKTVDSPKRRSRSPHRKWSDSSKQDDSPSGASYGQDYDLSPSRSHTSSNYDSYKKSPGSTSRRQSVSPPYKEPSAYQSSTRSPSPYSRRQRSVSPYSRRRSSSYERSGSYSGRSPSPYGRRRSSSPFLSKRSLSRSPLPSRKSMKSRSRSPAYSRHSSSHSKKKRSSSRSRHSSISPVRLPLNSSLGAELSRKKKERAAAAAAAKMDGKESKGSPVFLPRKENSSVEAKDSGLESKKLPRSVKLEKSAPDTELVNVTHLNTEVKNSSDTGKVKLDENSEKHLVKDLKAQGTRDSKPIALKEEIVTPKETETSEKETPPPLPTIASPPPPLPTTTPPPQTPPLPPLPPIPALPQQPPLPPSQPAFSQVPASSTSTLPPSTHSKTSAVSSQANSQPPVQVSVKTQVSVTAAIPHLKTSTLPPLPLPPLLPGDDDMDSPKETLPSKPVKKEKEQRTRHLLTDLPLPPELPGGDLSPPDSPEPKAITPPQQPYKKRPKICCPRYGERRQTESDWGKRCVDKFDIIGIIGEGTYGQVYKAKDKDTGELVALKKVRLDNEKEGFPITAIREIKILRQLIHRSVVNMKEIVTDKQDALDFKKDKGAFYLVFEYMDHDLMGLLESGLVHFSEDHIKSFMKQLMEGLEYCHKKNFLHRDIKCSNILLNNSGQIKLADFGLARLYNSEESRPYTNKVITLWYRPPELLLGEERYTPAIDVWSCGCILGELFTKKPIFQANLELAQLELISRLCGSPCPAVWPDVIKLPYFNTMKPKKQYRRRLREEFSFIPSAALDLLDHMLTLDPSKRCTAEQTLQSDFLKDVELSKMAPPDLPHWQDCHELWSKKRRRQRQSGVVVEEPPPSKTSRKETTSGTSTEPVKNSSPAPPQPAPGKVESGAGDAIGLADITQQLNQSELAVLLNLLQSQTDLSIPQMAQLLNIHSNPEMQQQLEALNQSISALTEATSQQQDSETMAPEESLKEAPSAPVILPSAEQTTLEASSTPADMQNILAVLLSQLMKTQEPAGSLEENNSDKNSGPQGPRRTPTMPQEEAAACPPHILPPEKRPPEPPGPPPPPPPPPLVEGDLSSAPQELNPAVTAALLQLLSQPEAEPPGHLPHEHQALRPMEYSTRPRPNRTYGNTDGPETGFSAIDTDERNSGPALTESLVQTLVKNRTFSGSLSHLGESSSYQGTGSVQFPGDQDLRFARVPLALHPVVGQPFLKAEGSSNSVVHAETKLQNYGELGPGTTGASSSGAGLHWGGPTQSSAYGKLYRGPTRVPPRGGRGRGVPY

Compound	IC50 (MDA-MB-231)	IC50 (MDA-MB-468)	IC50 (MDA-MB-436)	inhibition [1]
NC(=O)c1cccc2[nH]c(NC(=O)c3cccc(C(=O)N4CCN(c5ccc(C(F)(F)F)cn5)CC4)c3)nc12	25.4 µM	27.5 µM	24.6 µM	46.4%
NC(=O)c1cccc2[nH]c(NC(=O)c3ccc(C(=O)N4CCN(c5ncc(Br)cn5)CC4)cc3)nc12	24.2 µM	25.1 µM	23.6 µM	41.6%
NC(=O)c1cccc2[nH]c(NC(=O)c3cccc(C(=O)N4CCN(c5ncc(C(F)(F)F)cn5)CC4)c3)nc12	18.9 µM	19.3 µM	17.8 µM	52.1%
NC(=O)c1cccc2[nH]c(NC(=O)c3ccc(C(=O)N4CCC(Nc5nccc(C(F)(F)F)n5)CC4)cc3)nc12	> 30 µM	> 30 µM	> 30 µM	16.8%
N#Cc1cnc(N2CCN(C(=O)c3cccc(C(=O)Nc4nc5c(C(N)=O)cccc5[nH]4)c3)CC2)nc1	> 30 µM	> 30 µM	> 30 µM	32.6%
NC(=O)c1cccc2[nH]c(NC(=O)c3ccc(C(=O)N4CCN(c5ncc(I)cn5)CC4)cc3)nc12	25.8 µM	26.3 µM	22.9 µM	45.2%
NC(=O)c1cccc2[nH]c(NC(=O)c3ccc(S(=O)(=O)N4CCC(Nc5ncc(Br)cn5)CC4)cc3)nc12	26.6 µM	24.6 µM	> 30 µM	77.6%
N#Cc1ccc(NC2CCN(C(=O)c3ccc(C(=O)Nc4nc5c(C(N)=O)cccc5[nH]4)cc3)CC2)nc1	> 30 µM	> 30 µM	> 30 µM	13.3%
NC(=O)c1cccc2[nH]c(NC(=O)c3ccc(CN4CCC(Nc5ncc(C(F)(F)F)cn5)CC4)cc3)nc12	26.9 µM	27.3 µM	> 30 µM	34%
NC(=O)c1cccc2[nH]c(NC(=O)c3ccc(C(=O)N4CCC(Nc5ncc(C(F)(F)F)cn5)CC4)cc3)nc12	22.8 µM	25.2 µM	23.2 µM	54.6%
NC(=O)c1cccc2[nH]c(NC(=O)c3ccc(C(=O)N4CCC(Nc5ccc(C(F)(F)F)cn5)CC4)cc3)nc12	> 30 µM	> 30 µM	> 30 µM	26.7%
NC(=O)c1cccc2[nH]c(NC(=O)c3ccc(C(=O)N4CCC(Nc5ncccn5)CC4)cc3)nc12	30 µM	28.7 µM	25 µM	32.4%
NC(=O)c1cccc2[nH]c(NC(=O)c3ccc(C(=O)N4CCN(c5ncc(Cl)cn5)CC4)cc3)nc12	28.2 µM	27.3 µM	27.6 µM	37.4%
NC(=O)c1cccc2[nH]c(NC(=O)c3cccc(C(=O)N4CCN(c5ncc(F)cn5)CC4)c3)nc12	> 30 µM	> 30 µM	> 30 µM	31.6%
NC(=O)c1cccc2[nH]c(NC(=O)c3ccc(C(=O)N4CCC(Nc5ccc(I)cn5)CC4)cc3)nc12	> 30 µM	> 30 µM	> 30 µM	29.8%
NC(=O)c1cccc2[nH]c(NC(=O)c3cccc(C(=O)N4CCN(c5ncc(Cl)cn5)CC4)c3)nc12	25.4 µM	24.1 µM	> 30 µM	44.1%
NC(=O)c1cccc2[nH]c(NC(=O)c3cccc(C(=O)N4CCC(Nc5ccc(C(F)(F)F)cn5)CC4)c3)nc12	> 30 µM	> 30 µM	> 30 µM	19.8%
N#Cc1cnc(N2CCN(C(=O)c3ccc(C(=O)Nc4nc5c(C(N)=O)cccc5[nH]4)cc3)CC2)nc1	> 30 µM	> 30 µM	> 30 µM	28.5%
NC(=O)c1cccc2[nH]c(NC(=O)c3ccc(CN4CCC(Nc5ncc(F)cn5)CC4)cc3)nc12	> 30 µM	> 30 µM	> 30 µM	30.3%
NC(=O)c1cccc2[nH]c(NC(=O)c3ccc(C(=O)N4CCN(c5ncc(C(F)(F)F)cn5)CC4)cc3)nc12	24.1 µM	24.2 µM	23.9 µM	43%
NC(=O)c1cccc2[nH]c(NC(=O)c3ccc(S(=O)(=O)N4CCC(Nc5ncc(C(F)(F)F)cn5)CC4)cc3)nc12	26.7 µM	25.3 µM	27.1 µM	69.9%
NC(=O)c1cccc2[nH]c(NC(=O)c3ccc(CN4CCC(Nc5ncc(I)cn5)CC4)cc3)nc12	> 30 µM	27.7 µM	28.9 µM	40.8%
NC(=O)c1cccc2[nH]c(NC(=O)c3ccc(CN4CCC(Nc5ncc(Br)cn5)CC4)cc3)nc12	26.5 µM	25.7 µM	24.2 µM	45.4%
NC(=O)c1cccc2[nH]c(NC(=O)c3ccc(C(=O)N4CCN(c5ccc(C(F)(F)F)cn5)CC4)cc3)nc12	26.8 µM	27.3 µM	25.7 µM	39.8%
NC(=O)c1cccc2[nH]c(NC(=O)c3ccc(C(=O)N4CCN(c5ncc(F)cn5)CC4)cc3)nc12	> 30 µM	> 30 µM	> 30 µM	19.8%
NC(=O)c1cccc2[nH]c(NC(=O)c3ccc(C(=O)N4CCC(Nc5ccc(Br)cn5)CC4)cc3)nc12	> 30 µM	> 30 µM	> 30 µM	25.9%
NC(=O)c1cccc2[nH]c(NC(=O)c3cccc(C(=O)N4CCN(c5ncc(I)cn5)CC4)c3)nc12	20.1 µM	21.8 µM	20.9 µM	49.6%
NC(=O)c1cccc2[nH]c(NC(=O)c3ccc(CN4CCC(Nc5ncc(Cl)cn5)CC4)cc3)nc12	27 µM	> 30 µM	25.8 µM	43.1%
NC(=O)c1cccc2[nH]c(NC(=O)c3cccc(C(=O)N4CCN(c5ncc(Br)cn5)CC4)c3)nc12	24.5 µM	23.7 µM	22.1 µM	46.2%

Next, values leading:

IC50 (MDA-MB-231)	IC50 (MDA-MB-468)	IC50 (MDA-MB-436)	inhibition [1]	Compound
> 30 µM	> 30 µM	> 30 µM	21.7%	N#Cc1cnc(NC2CCN(C(=O)c3cccc(C(=O)Nc4nc5c(C(N)=O)cccc5[nH]4)c3)CC2)nc1
28.7 µM	26.4 µM	24.4 µM	38.8%	NC(=O)c1cccc2[nH]c(NC(=O)c3ccc(C(=O)N4CCC(Nc5ncc(F)cn5)CC4)cc3)nc12
> 30 µM	> 30 µM	> 30 µM	24.1%	NC(=O)c1cccc2[nH]c(NC(=O)c3ccc(C(=O)N4CCC(Nc5ncc([N+](=O)[O-])cn5)CC4)cc3)nc12
> 30 µM	> 30 µM	> 30 µM	30.1%	NC(=O)c1cccc2[nH]c(NC(=O)c3cccc(C(=O)N4CCC(Nc5ccc(I)cn5)CC4)c3)nc12
24.5 µM	24.3 µM	22.3 µM	44.1%	CCc1cnc(NC2CCN(C(=O)c3ccc(C(=O)Nc4nc5c(C(N)=O)cccc5[nH]4)cc3)CC2)nc1
19.5 µM	21.3 µM	17.2 µM	55.4%	NC(=O)c1cccc2[nH]c(NC(=O)c3ccc(C(=O)N4CCC(Nc5ncc(Br)cn5)CC4)cc3)nc12
25.2 µM	27.9 µM	22.7 µM	36.4%	COc1cnc(NC2CCN(C(=O)c3cccc(C(=O)Nc4nc5c(C(N)=O)cccc5[nH]4)c3)CC2)nc1
> 30 µM	> 30 µM	> 30 µM	5.4%	NC(=O)c1cccc2[nH]c(NC(=O)c3cccc(C(=O)N4CCC(Nc5ncc([N+](=O)[O-])cn5)CC4)c3)nc12
> 30 µM	> 30 µM	> 30 µM	27.5%	N#Cc1cnc(NC2CCN(C(=O)c3ccc(C(=O)Nc4nc5c(C(N)=O)cccc5[nH]4)cc3)CC2)nc1
> 30 µM	> 30 µM	> 30 µM	25%	NC(=O)c1cccc2[nH]c(NC(=O)c3cccc(C(=O)N4CCC(Nc5ncccn5)CC4)c3)nc12
24.9 µM	23.5 µM	20.8 µM	50.7%	NC(=O)c1cccc2[nH]c(NC(=O)c3ccc(C(=O)N4CCC(Nc5ncc(Cl)cn5)CC4)cc3)nc12
24.2 µM	23.1 µM	21.3 µM	48.7%	CCc1cnc(NC2CCN(C(=O)c3cccc(C(=O)Nc4nc5c(C(N)=O)cccc5[nH]4)c3)CC2)nc1
27.4 µM	28.9 µM	25.6 µM	31.5%	COc1cnc(NC2CCN(C(=O)c3ccc(C(=O)Nc4nc5c(C(N)=O)cccc5[nH]4)cc3)CC2)nc1
> 30 µM	> 30 µM	> 30 µM	25.6%	NC(=O)c1cccc2[nH]c(NC(=O)c3cccc(C(=O)N4CCC(Nc5ccc(Br)cn5)CC4)c3)nc12
> 30 µM	> 30 µM	> 30 µM	1.3%	Cc1cnc(NC2CCN(C(=O)c3cccc(C(=O)Nc4nc5c(C(N)=O)cccc5[nH]4)c3)CC2)nc1
19.3 µM	18.5 µM	16.5 µM	61.7%	NC(=O)c1cccc2[nH]c(NC(=O)c3ccc(C(=O)N4CCC(Nc5ncc(I)cn5)CC4)cc3)nc12
25.5 µM	27.6 µM	23 µM	35.6%	Cc1cnc(NC2CCN(C(=O)c3ccc(C(=O)Nc4nc5c(C(N)=O)cccc5[nH]4)cc3)CC2)nc1
